Experimental data from US20230416168A1 (EUROCHEM ANTWERPEN, priority 2020, published 2023).
Where two headings read alike, the source gives them in different places.

Columns and labels:
Nitrosospira multiformis = experiment: Nitrification inhibition assay with Nitrosospira multiformis (nitrite level after 24 h); format: cell-based; details: for IC50 / activity at 100 µM / activity at 50 µM: Nitrosospira multiformis; for activity at 100 µM / activity at 50 µM: 24 h, read-out: Nitrification at tested concentration (0 = maximum activity); for activity at 50 µM: tested concentration 50 μM
Experimental: (§1) The compounds of formula (I) and (II) and (III)/(IV) were tested for their nitrification inhibition effect in two screens, using assays with the nitrifying bacteria N. europaea and N. multiformis. In practice, ammonium and candidate nitrification inhibitors (at 100 μM) were added to a dense bacterial culture in multiwell culture plates and after 24 h of incubation, the nitrite level was measured. To normalize for differences between batches of cultures and multiwell culture plates, for each well a relative nitrification was calculated that was normalized towards both the negative and positive controls (see “Material and Methods” below for full details).
(§2) Nitrite (NO2−) was measured using the Griess reagent (Product number: G4410, Griess reagent (modified), Sigma-Aldrich). Equal volumes of the sample or a diluted sample and the Griess reagent were mixed a transparent flat bottom multi-well plate and incubated in the dark at room temperature for 10 minutes. Absorbance values at 540 nm were measured spectrophotometrically (EnVision, Perkin Elmer®) and used to calculate the [NO2−] by use of a standard curve.
Cultures were first 5 times overconcentrated in fresh 181-medium by centrifugation (4000 rpm, 15 min, 5° C.) in 50 mL centrifuge tubes (Cat. No. 430829, CentriStar™ Conical Centrifuge Tubes, Corning®). Per batch, all the cultures were pooled in one sterile Schott bottle and subsequently dispensed in 384-well plates (Cat. No. 781086, CELLSTAR® plate, Greiner BioOne; 50 μl/well) by use of a dispenser (Multidrop™ Combi Reagent Dispenser, Thermo Scientific™) that was first flushed with 181-medium. 0.5 μl of 99.99% DMSO (negative control—final concentration […] was added to the outer two columns on the left side of the plate and 0.5 μl of 10 mM DMP (3,4-dimethylpyrazole, positive control—final concentration 100 μM) was added to the outer two columns on the right side manually. Finally, 0.5 μl of candidate nitrification inhibitors (5 mM stock solutions in 99.99% DMSO—final concentration 50 μM) were added to the central wells using a pin tool on a Tecan robot (Freedom EVO®, Tecan). In between additions, the pins were washed in sequence with 99.5% DMSO, MilliQ water and 100% ethanol and air-dried. All plates were separately wrapped in Parafilm. Stacks of 4 plates were put on top of a 96-well plate filled with 100 μl MilliQ per well, covered with aluminum foil and shaken (±150 rpm) at 30° C. 24 h later, NO2− production was assessed. For this, the samples were first 100 times diluted by pipetting 3 μl of samples into 300 μl fresh growth medium in intermediate plates (Cat. No. 353077, Falcon® 96-well Clear Round Bottom Microplate, Corning®) to then mix 15 μl of the diluted samples with 15 μl Griess reagent in the wells of a transparent, flat bottom 384-well plate (Cat. No. X^7001, Low Profile Microplate, Molecular Devices) that was measured spectrophotometrically at 540 nm (EnVision, Perkin Elmer®).
(§3) To assess the efficacy of the compounds (in terms of nitrification inhibition) and to enable comparison between plates and batches of cultures, we calculated the relative nitrification. More in detail, all nitrite results were normalized towards both a negative control, containing no compound, and a positive control, containing the benchmark (100 μM DMP), using Equation 1. This normalization was done per multi-well plate and each plate contained 32 positive and 32 negative controls.
IC50 values, that is the concentration that inhibits 50% of the nitrification, were calculated after fitting a logistic curve to 8-point dose response data, using doses between 2 and 100 μM with 1.75 fold steps. If a concentration of 2 μM already inhibited nitrification, the IC50 value could not be calculated. In that case, IC50 values represent the dose that gives inhibition closest to 50%.
The compounds of formula (I) and (II) were tested for their nitrification inhibition effect in two screens, using assays with the nitrifying bacteria N. europaea and N. multiformis. […]

Nitrosomonas europaea = experiment: Nitrification inhibition assay with Nitrosomonas europaea (nitrite level after 24 h); format: cell-based; details: for IC50 / activity at 100 µM / activity at 50 µM: Nitrosomonas europaea; for activity at 100 µM / activity at 50 µM: 24 h, read-out: Nitrification (%) at tested concentration (0 = maximum activity); for activity at 50 µM: tested concentration 50 μM
Experimental: as §1, §2
To prepare a high-throughput nitrification inhibition assay using N. europaea, late-log phase cultures were subcultivated two days before the assay. Just before the assay, the cultures were 5 times overconcentrated with fresh growth medium after centrifugation (4000 rpm, 15 min, 5° C.) in 50 mL centrifuge tubes (Cat. No. 430829, CentriStar™ Conical Centrifuge Tubes, Corning®). Per batch, all the cultures were pooled in one sterile Schott bottle and subsequently dispensed into 384-well plates (Cat. No. 781086, CELL-STAR® plate, Greiner Bio-One; 50 μl/well) by use of a dispenser (Multidrop™ Combi Reagent Dispenser, Thermo Scientific™) that was first flushed with growth medium. Specifically for the high-throughput screen for new nitrification inhibitors, 0.5 μl of 99.99% DMSO (negative control—final concentration 1%) was added to the outer two columns on the left side of the plate and 0.5 μl of 10 mM DMP (3,4-dimethylpyrazole, positive control—final concentration 100 μM) was added to the outer two columns on the right side manually. Finally, 0.5 μl of candidate nitrification inhibitors (5 mM stock solutions in 99.99% DMSO—final concentration 50 μM) were added to the central wells using a pin tool on a Tecan robot (Freedom EVO®, Tecan). In between additions, the pins were washed in sequence with 99.5% DMSO, MilliQ water and 100% ethanol and air-dried. All plates were separately wrapped in Parafilm. Stacks of 4 plates were put on top of a 96-well plate filled with 100 μl MilliQ per well, covered with aluminum foil and shaken at 150 rpm at 28° C. 24 h later, NO2− production was assessed. For this, the samples were first 200 times diluted by pipetting 1.5 μl of samples into 300 μl of fresh growth medium in intermediate plates (Cat. No. 353077, Falcon® 96-well Clear Round Bottom Microplate, Corning®), to then mix 15 μl of the diluted samples with 15 μl Griess reagent in the wells of a transparent, flat bottom 384-well plate (Cat. No. X^7001, Low Profile Microplate, Molecular Devices) that was measured spectrophotometrically at 540 nm (EnVision, Perkin Elmer®).
as §3
IC50 values, that is the concentration that inhibits 50% of the nitrification, were calculated after fitting a logistic curve to 8-point dose response data, using doses between 2 and 100 μM with 1.75 fold steps. […]

[1] = 8-point dose response, 2 to 100 μM, read-out: IC50
[2] = tested concentration 100 μM, normalized to DMSO (100%) and 100 μM DMP (0%)
[3] = normalized to DMSO (100%) and 100 μM DMP (0%)

Row | Compound | IC50 (Nitrosospira multiformis; [1]) [µM] | activity at 100 µM (Nitrosospira multiformis; [2]) [%] | IC50 (Nitrosomonas europaea; [1]) [µM] | activity at 100 µM (Nitrosomonas europaea; [2]) [%] | further results
1 | CCN(CN1CCSC1=S)C1CC1 [Example 2] | < 2 | 0 | < 2 | 0 | –
2 | CC1CSC(=S)N1 (centres unmarked) [Example 3] | < 2 | 0 | < 3.5 | 0 | –
3 | CC1CNC(=S)S1 (centres unmarked) [Example 4] | – | – | – | – | IC50 (Nitrosospira multiformis): < 2 µM; activity at 100 µM (Nitrosospira multiformis): 0%; IC50 (Nitrosomonas europaea): < 2 µM; activity at 100 µM (Nitrosomonas europaea): 0%
4 | O=C1NCCS1 [Example 8] | < 100 | 31 | < 100 | 47 | –
5 | O=C(CSC1=NCCS1)NCc1cc(Br)cs1 [Example 11] | < 20 | 0 | – | – | –
6 | COc1cccc(-c2nc(CSC3=NCCS3)cs2)c1OC [Example 12] | < 20 | 11 | < 100 | 0 | –
7 | CCn1c(CSC2=NCCS2)nc2cc(F)ccc21 [Example 13] | – | – | – | – | activity at 50 µM (Nitrosospira multiformis; [3]): 0%; activity at 50 µM (Nitrosomonas europaea; [3]): 73%
8 | CC1CSC(SCc2cc(=O)n3ccsc3n2)=N1 (centres unmarked) [Example 14] | < 20 | 0 | < 57 | 0 | –
9 | COc1cc(C(=O)CSC2=NCCS2)cc(OC)c1OC [Example 15] | – | – | – | – | activity at 50 µM (Nitrosospira multiformis; [3]): 13%; activity at 50 µM (Nitrosomonas europaea; [3]): 78%
10 | Cc1cccc(CSC2=NCCS2)c1 [Example 17] | – | – | – | – | activity at 50 µM (Nitrosospira multiformis; [3]): 36%; activity at 50 µM (Nitrosomonas europaea; [3]): 100%
11 | COc1ccccc1Nc1nc(N)nc(CSC2=NCCS2)n1 [Example 20] | – | – | – | – | activity at 50 µM (Nitrosospira multiformis; [3]): 42%; activity at 50 µM (Nitrosomonas europaea; [3]): 79%
12 | Cc1csc(=S)[nH]1 [Example 26, 4-methyl-1,3-thiazole-2-thiol] | 2.1 | 0 | 38 | 0 | Average nitrification [%] in Nitrosospira multiformis (Nitrosospira multiformis; 2 μM): 51%; Average nitrification [%] in Nitrosospira multiformis (Nitrosospira multiformis; 3.5 μM): 27%; Average nitrification [%] in Nitrosospira multiformis (Nitrosospira multiformis; 6 μM): 6%; Average nitrification [%] in Nitrosospira multiformis (Nitrosospira multiformis; 11 μM): 2%; Average nitrification [%] in Nitrosospira multiformis (Nitrosospira multiformis; 19 μM): 0%; Average nitrification [%] in Nitrosospira multiformis (Nitrosospira multiformis; 33 μM): 0%; Average nitrification [%] in Nitrosospira multiformis (Nitrosospira multiformis; 57 μM): 0%; Average nitrification [%] in Nitrosospira multiformis (Nitrosospira multiformis; 100 μM): 0%; Average nitrification [%] in Nitrosomonas europaea (Nitrosomonas europaea; 2 μM): 91%; Average nitrification [%] in Nitrosomonas europaea (Nitrosomonas europaea; 3.5 μM): 84%; Average nitrification [%] in Nitrosomonas europaea (Nitrosomonas europaea; 6 μM): 80%; Average nitrification [%] in Nitrosomonas europaea (Nitrosomonas europaea; 11 μM): 83%; Average nitrification [%] in Nitrosomonas europaea (Nitrosomonas europaea; 19 μM): 78%; Average nitrification [%] in Nitrosomonas europaea (Nitrosomonas europaea; 33 μM): 71%; Average nitrification [%] in Nitrosomonas europaea (Nitrosomonas europaea; 57 μM): 50%; Average nitrification [%] in Nitrosomonas europaea (Nitrosomonas europaea; 100 μM): 0%
13 | CCSc1nc(CC(=O)O)cs1 [Example 27] | > 100 | 77 | > 100 | 62 | –
14 | S=c1[nH]cc(Cc2ccccc2)s1 [Example 28] | 12 | 0 | > 100 | 65 | –
15 | CSc1nc(N)c(C#N)s1 [Example 29] | > 100 | 61 | 28 | 0 | –
16 | S=c1[nH]c(-c2ccccc2)cs1 [Example 30] | 36 | 0 | 42 | 21 | –
17 | Oc1csc(=S)[nH]1 [Example 31] | 16 | 11 | 14 | 12 | –
18 | CSc1nc(Br)cs1 [Example 32] | > 100 | 75 | < 100 | 46 | –
19 | CSc1ncc(Br)s1 [Example 33] | > 100 | 64 | > 100 | 68 | –
20 | S=c1[nH]c(C2CC2)cs1 [Example 34] | 11 | 0 | 52 | 0 | –
21 | Cc1[nH]c(=S)sc1C [Example 35] | 3 | 0 | 43 | 12 | –
22 | S=c1[nH]c(C2CCCCC2)cs1 [Example 36] | 49 | 15 | 16 | 0 | –
23 | NCCCSc1nccs1 [Example 37] | 44 | 7 | > 100 | 58 | –
24 | Cc1csc(SC2CCCCC2)n1 [Example 38] | > 100 | 53 | > 100 | 92 | –
25 | S=c1[nH]cco1 [Example 40] | 3 | 0 | 4 | 0 | –
26 | CSC1=NCCO1 [Example 41] | – | – | – | – | IC50 (Nitrosospira multiformis): > 100 µM; activity at 100 µM (Nitrosospira multiformis): 68%; IC50 (Nitrosomonas europaea): > 100 µM; activity at 100 µM (Nitrosomonas europaea): 88%
27 | S=C1NC(c2ccccc2)CO1 (centres unmarked) [Example 42] | < 57 | 12 | 68 | 40 | –
28 | CC1(C)COC(=S)N1 [Example 43] | 20 | 0 | 7 | 0 | –
29 | C=CC1CNC(=S)O1 (centres unmarked) [Example 44] | 24 | 0 | 2 | 0 | –
